The values below come from paper PMC9551036, “A selective and orally bioavailable VHL-recruiting PROTAC achieves SMARCA2 degradation in vivo” (Nature Communications, 2022).

SMILES strings stand for the structures. “And” between values parts separate entries of the source, which are not always exact repeats. Equal entries are not always repeated. Where two headings read alike, the source gives them in different places. Bounds are passed on as bounds.

The target of series [1] is T1, SMARCA2^BD (Homo sapiens, UniProt P51531).
T1 construct: P51531-2, residues 1373-1493 with additional N-terminal SM residues; GST (TEV site) (N, cleaved yes); made in house; host or cells: Escherichia coli BL21(DE3)
As to the kind of experiment: SPR binding to immobilised SMARCA2 bromodomain. The conditions noted are these: SPR, read-out: SMARCA2 KD. A general note: Surface plasmon resonance follows binding to a sensor surface in real time, without labels.

In series [2] the test system is Caco-2 cell monolayer. As to the kind of experiment: Bidirectional permeability measurement in Caco-2 cells. Type of series: in vitro ADME. An outline of the steps: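 Compound quantified by LC-MS/MS in samples taken over up to 2 h across 14–21-day Caco-2 monolayers, after 24 h preincubation with 1 µM compound. Runs done without and with 5 µM zosuquidar to probe P-gp. Efflux ratio is the quotient of duplicate-mean Papp,BA over Papp,AB.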

A short description of series [3]: Microsomal stability. It is filed as in vitro ADME. The conditions noted are these: for Mic. Stab. Human / Mic. Stab. Human QH: human liver microsomes; for Mic. Stab. Mouse / Mic. Stab. Mouse QH: mouse liver microsomes; for Mic. Stab. Rat / Mic. Stab. Rat QH: rat liver microsomes. As to the method: […] Reactions were terminated by addition of acetonitrile and precipitates separated by centrifugation. Compound concentrations in supernatants were measured by HPLC-MS/MS and clearance was calculated from compound half-lives using the well-stirred liver model.
(In general: Liver microsomes are vesicles of endoplasmic reticulum, rich in cytochrome P450 enzymes.)

Series [4] deals with VCB: PROTAC: SMARCA4^BD ternary complex. As to the kind of experiment: TR-FRET ternary complex affinity and cooperativity, SMARCA4. Type of series: binding, human. As to conditions: ratio TR-FRET EC50 / TR-FRET EC50 +VCB measured in the same run, SMARCA4BD.
[5] abbreviates: Modified Caco-2, a to b, + PGPi (Zosuquidar).

T1 sequence (P51531 1373-1493 isoform P51531-2): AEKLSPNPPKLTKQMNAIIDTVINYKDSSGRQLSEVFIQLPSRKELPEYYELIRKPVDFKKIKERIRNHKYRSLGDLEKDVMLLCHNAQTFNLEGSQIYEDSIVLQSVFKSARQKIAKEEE

Usually Kd stands for a measure of binding affinity in units of concentration. With `Cc1ncsc1-c1ccc([C@H](CCC(C)(C)CCN2CCC(c3ccc4c(c3)n(C3CCCC3)c3nc(=O)c5c(Br)cccc5n43)CC2)NC(=O)[C@@H]2C[C@@H](O)CN2C(=O)[C@@H](NC(=O)C2(F)CC2)C(C)(C)C)cc1` [compound 30], in series [1] (SMARCA2BD, mean ± SD), the dissociation constant (Kd) is 325 ± 31 nM. In addition, the Kd in series [1] (individual replicates) is 290 nM and 351 nM and 333 nM. In series [2] (Caco-2), the “Caco-2 Efflux ratio” value is listed as 9.412 No peak area and the “Caco-2 Pab” value is given as <0.3 10-6 cm/s. Moreover, in series [2], the “Modified Caco-2 Efflux ratio” value is 7.333 and 12.000 and 10 ± 3. Moreover, the “Modified Caco-2 Pab” value in series [2] (Modified Caco-2, a to b) was 4.5 ×10⁻⁶ cm/s and 2.5 ×10⁻⁶ cm/s. The “Modified Caco-2 Pab + PGPi (Zosuquidar)” value in series [2] (setting [5]) is 7.2 ×10⁻⁶ cm/s and 8.4 ×10⁻⁶ cm/s. In addition, in series [3], the “Mic. Stab. Human” value was less than 24 % QH, the “Mic. Stab. Human QH” value is on record as <24.400 <24.400%, the “Mic. Stab. Mouse” value is given as less than 24 % QH and the “Mic. Stab. Mouse QH” value was less than 24.200%. Moreover, in series [3], the “Mic. Stab. Rat” value is less than 23 % QH and the “Mic. Stab. Rat QH” value is on record as <23.100 <23.100%. Moreover, the “cooperativity α (SMARCA4BD)” value in series [4] came to 4.3 ± 0.5.

Take `Cc1ncsc1-c1ccc([C@H](COC(C)CN2CCC(c3ccc4c(c3)n(C3CCCC3)c3nc(=O)c5c(Br)cccc5n43)CC2)NC(=O)[C@@H]2C[C@@H](O)CN2C(=O)[C@@H](NC(=O)C2(F)CC2)C(C)(C)C)cc1` (stereo partly shown) [compound 9]: in series [1] (SMARCA2BD, mean ± SD), the equilibrium dissociation constant (Kd) came to 263 ± 9 nM. Further, the Kd in series [1] (individual replicates) is 260 nM and 273 nM and 257 nM. Besides, the “Caco-2 Pba” value in series [2] (Caco-2, b to a) is 21 ×10⁻⁶ cm/s and 18 ×10⁻⁶ cm/s. Further, the “Modified Caco-2 Efflux ratio” value in series [2] is 60.000 and 39 ± 21. Moreover, the “Modified Caco-2 Pab + PGPi (Zosuquidar)” value in series [2] (setting [5]) is 11 ×10⁻⁶ cm/s and 14 ×10⁻⁶ cm/s. The “Modified Caco-2 Pba” value in series [2] (Modified Caco-2, b to a) was 130 ×10⁻⁶ cm/s and 120 ×10⁻⁶ cm/s. In series [2] (Modified Caco-2, b to a, + PGPi (Zosuquidar)), the “Modified Caco-2 Pba + PGPi (Zosuquidar)” value came out at 18 ×10⁻⁶ cm/s. Also, in series [3], the “Mic. Stab. Human” value is on record as 55 ± 1 % QH; the “Mic. Stab. Human QH” value was 54.100% and 55.600%; the “Mic. Stab. Mouse” value worked out at 27 ± 3 % QH; the “Mic. Stab. Mouse QH” value was 24.700% and 28.800% and < 24.200%. Also, in series [3], the “Mic. Stab. Rat” value was less than 23 % QH and the “Mic. Stab. Rat QH” value is <23.100 <23.100 <23.100%. Moreover, in series [4], the “cooperativity α (SMARCA4BD)” value is 2.2 ± 0.2.
